{
  "source": "paper PMC10574185",
  "about": "“Encapsulation and Biological Activity of Hesperetin Derivatives with HP-β-CD” (Molecules, 2023)",
  "key": {"[1]": {"assay": "ABTS^•+ radical cation decolorization assay", "conditions": "concentration 0.1 mg/mL, mean ± SD", "experimental": "To evaluate the antioxidant ability of the tested systems, antioxidant analysis was performed. Antioxidants can scavenge hydroxyl radicals in two ways: by reacting directly with hydroxyl radicals (DPPH^•, ABTS^•+) or indirectly inhibiting the formation of hydroxyl radicals by chelating metal ions involved in the production of hydroxyl radicals. The antioxidant activity of the systems studied was investigated by using DPPH^• scavenging, ABTS^•+ scavenging ability, and Fe^2+-chelating ability. In this study, the antioxidant activity of pure hesperetin and its Schiff bases (HHSB, HIN, and HTSC) and HP-β-CD complexes were compared, and the positive control was Trolox.\nAntioxidant activity using ABTS^•+ cation radical scavenging was determined according to a modified method. ABTS solution (2.5 mM) was mixed with 1.0 mM potassium persulfate solution and left at room temperature in the dark for 12-24 h. After this time, the absorbance of the finished ABTS^•+ solution was corrected with ethanol to 0.70 ± 0.02 at 745 nm. A total of 100 µL of the sample was reacted for 5 min with 2 mL of ABTS^•+ solution (A745 nm = 0.70 ± 0.02). The absorbance value of the reaction mixture was measured at 745 nm. […] Scavenging activity (%) = [1 − (Asample − Ablank)/Acontrol] × 100%(4) where Acontrol is the absorbance value of the control (ABTS^•+ solution with water), Ablank is the absorbance value of samples mixed with anhydrous ethanol, and Asample is the absorbance value of the added test sample to ABTS^•+ solution at 745 nm, respectively."}, "HaCaT cells": {"tested_on": "HaCaT cells", "assay": "MTT cytotoxicity assay on HaCaT keratinocytes", "format": "cell-based, human", "conditions": "for IC50: Homo sapiens", "experimental": "HaCaT keratinocyte cells were exposed to chemical compounds at nine different concentrations (from 3.9 to 995.6 µg/mL) in four replicates of each concentration for 24 and 48 h.\nAll compounds were dissolved in sterile DMSO (Merck Life Science, Warsaw, Poland) and were sterile-filtered with 0.22 µm pore size sterile disposable syringe filters.\nHaCaT cell line (the normal immortalised human keratinocytes) used in the study derived from the 35th passage (the original material created by Prof. Dr. Petra Boukamp and Dr. Norbert Fusenig) was purchased from Cell Line Service GmbH (Eppelheim, Germany). The cells were cultured and propagated as described previously.\nThe cytotoxicity was assessed with MTT assay according to methodology applied previously.\nThe following final concentrations (in four replicates per experiment) of the test compounds were tested (µg/mL): 3.9; 7.8; 15.6; 31.1; 62.2; 124.5; 248.9; 497.8, and 995.6. […] Three independent experiments were conducted. The vehicle was cells in the culture medium. The assay was conducted for 24 h and 48 h."}, "[2]": {"tested_on": "Staphylococcus aureus ATCC 25923", "assay": "Minimal inhibition concentration (dilution + diffusion-well)", "format": "cell-based", "conditions": "ATCC25923, 37 °C, 18 h", "experimental": "The MIC was performed for compounds and strains sensitive to their action in the antagonistic test. Minimum inhibitory concentration was determined by combining the dilution method with the diffusion-well method. Test compounds at a concentration of 500 μM were prepared in 5% (w/w) DMSO. Surface layer of microorganisms, against which antagonistic activity was noted, were prepared in the same way as for the antagonistic test. Then, two-fold sequential dilutions of the test compounds in the range of 500 µM to 62.5 µM were prepared. Wells with a diameter of 8 mm cut in the Mueller–Hinton Agar (Merck, Darmstadt, Germany) with the test strain were added with 50 µL of the prepared dilutions, which corresponded to the following concentrations of the tested compounds: […], 1.25 mM, 0.625 mM, and […]. Petri dishes prepared in this way were incubated at 37 °C for 18 h. After a given time, the MIC value was read. The MIC concentration expressed in µM was the first concentration of the tested compounds at which growth inhibition of the test strain was observed."}, "[3]": {"tested_on": "Listeria monocytogenes ATCC 19111", "assay": "Antagonistic activity, diffusion-well method", "format": "cell-based", "conditions": "ATCC19111, compounds at 2.5 µM, wells 8 mm, 37 °C, 18 h", "method_in_brief": "(§1)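 Mueller-Hinton agar was surface-inoculated at 1-2 × 10^8 CFU/mL (McFarland 0.5), and 50 μL of compound at 500 μM, dissolved in 5% DMSO, was added per well. After 18 h at 37 °C, growth-inhibition zones were measured in mm. Values are means ± SD of two independent repetitions.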"}, "[4]": {"tested_on": "Salmonella Typhimurium ATCC 14028", "assay": "Antagonistic activity, diffusion-well method", "format": "cell-based", "conditions": "Salmonella enterica, compounds at 2.5 µM, wells 8 mm, 37 °C, 18 h", "method_in_brief": "as §1"}, "[5]": {"tested_on": "Salmonella Choleraesuis ATCC 7001", "assay": "Antagonistic activity, diffusion-well method", "format": "cell-based", "conditions": "Salmonella enterica, compounds at 2.5 µM, wells 8 mm, 37 °C, 18 h", "method_in_brief": "as §1"}, "[6]": {"tested_on": "Listeria monocytogenes ATCC 19112", "assay": "Antagonistic activity, diffusion-well method", "format": "cell-based", "conditions": "ATCC19112, compounds at 2.5 µM, wells 8 mm, 37 °C, 18 h", "method_in_brief": "as §1"}, "[7]": {"tested_on": "Listeria monocytogenes ATCC 19115", "assay": "Antagonistic activity, diffusion-well method", "format": "cell-based", "conditions": "ATCC19115, compounds at 2.5 µM, wells 8 mm, 37 °C, 18 h", "method_in_brief": "as §1"}, "[8]": {"tested_on": "Salmonella Enteritidis ATCC 13076", "assay": "Antagonistic activity, diffusion-well method", "format": "cell-based", "conditions": "Salmonella enterica, compounds at 2.5 µM, wells 8 mm, 37 °C, 18 h", "method_in_brief": "as §1"}, "[9]": {"conditions": "MTT, 24 h exposure, read-out: IC50 After 24 h"}, "[10]": {"conditions": "MTT, 48 h exposure, read-out: IC50 After 48 h"}},
  "note": "Values joined by “and” are separate entries in the source; they are usually repeats but may differ in a detail not shown here. Identical values can stand only once. Like-named read-outs stand apart in the source and are kept apart here.",
  "data": [
    {"smiles": "COc1ccc(C2C/C(=N\\NC(=O)c3ccccc3)c3c(O)cc(O)cc3O2)cc1O", "note": "(racemic) [HHSB]", "values": [
      {"measurement": "ABTS^•+ antioxidant activity", "setting": "[1]", "result": "98.11 ± 5.0", "unit": "%"},
      {"measurement": "cytotoxicity at the lowest concentration tested", "setting": "HaCaT cells; 48 h, 3.9 µg/mL", "result": "54.8% ± 5.4"},
      {"measurement": "cytotoxicity at the highest concentration tested", "setting": "HaCaT cells; 48 h, 995.6 µg/mL", "result": "79.1% ± 6.6"},
      {"measurement": "IC50", "setting": "HaCaT cells; [9]", "result": 418, "unit": "µg/mL"},
      {"measurement": "IC70 after 48 h", "setting": "HaCaT cells; MTT, 48 h exposure, IC50 impossible to count", "result": "163.5 µg/mL and 163.5 ^b µg/mL"},
      {"measurement": "MIC", "setting": "[2]", "result": 2.5, "unit": "µM"},
      {"measurement": "zone of inhibition at 2.5 µM", "setting": "[3]", "result": 0, "unit": "mm"},
      {"measurement": "zone of inhibition at 2.5 µM", "setting": "[4]", "result": 0, "unit": "mm"},
      {"measurement": "zone of inhibition at 2.5 µM", "setting": "[5]", "result": 0, "unit": "mm"},
      {"measurement": "zone of inhibition at 2.5 µM", "setting": "[6]", "result": 0, "unit": "mm"},
      {"measurement": "zone of inhibition at 2.5 µM", "setting": "[7]", "result": 0, "unit": "mm"},
      {"measurement": "zone of inhibition at 2.5 µM", "setting": "[8]", "result": 0, "unit": "mm"}
    ]},
    {"smiles": "COc1ccc(C2CC(=O)c3c(O)cc(O)cc3O2)cc1O", "note": "(centres unmarked) [Hesperetin, 3′,5,7-Trihydroxy-4′-methoxyflavanone]", "values": [
      {"measurement": "ABTS^•+ antioxidant activity", "setting": "[1]", "result": "77.42 ± 2.2", "unit": "%"},
      {"measurement": "Non-cytotoxic concentration (IC0)", "setting": "HaCaT cells; 48 h exposure", "result": "≤ 3.9", "unit": "µg/mL"},
      {"measurement": "IC50", "setting": "HaCaT cells; [9]", "result": 221, "unit": "µg/mL"},
      {"measurement": "IC50", "setting": "HaCaT cells; [10]", "result": 150, "unit": "µg/mL"},
      {"measurement": "zone of inhibition at 2.5 µM", "setting": "[3]", "result": 0, "unit": "mm"},
      {"measurement": "zone of inhibition at 2.5 µM", "setting": "[4]", "result": 0, "unit": "mm"},
      {"measurement": "zone of inhibition at 2.5 µM", "setting": "[5]", "result": 0, "unit": "mm"},
      {"measurement": "zone of inhibition at 2.5 µM", "setting": "[6]", "result": 0, "unit": "mm"},
      {"measurement": "zone of inhibition at 2.5 µM", "setting": "[7]", "result": 0, "unit": "mm"},
      {"measurement": "zone of inhibition at 2.5 µM", "setting": "[8]", "result": 0, "unit": "mm"}
    ]},
    {"smiles": "COc1ccc(C2C/C(=N\\NC(=O)c3ccncc3)c3c(O)cc(O)cc3O2)cc1O", "note": "(racemic) [HIN]", "values": [
      {"measurement": "ABTS^•+ antioxidant activity", "setting": "[1]", "result": "31.56 ± 1.6", "unit": "%"},
      {"measurement": "Non-cytotoxic concentration (IC0)", "setting": "HaCaT cells; 24 h exposure", "result": "≤ 7.8", "unit": "µg/mL"},
      {"measurement": "Non-cytotoxic concentration (IC0)", "setting": "HaCaT cells; 48 h exposure", "result": "≤ 15.6", "unit": "µg/mL"},
      {"measurement": "IC50", "setting": "HaCaT cells; [9]", "result": 350, "unit": "µg/mL"},
      {"measurement": "IC50", "setting": "HaCaT cells; [10]", "result": 59.7, "unit": "µg/mL"},
      {"measurement": "MIC", "setting": "[2]", "result": 2.5, "unit": "µM"},
      {"measurement": "zone of inhibition at 2.5 µM", "setting": "[3]", "result": 0, "unit": "mm"},
      {"measurement": "zone of inhibition at 2.5 µM", "setting": "[4]", "result": 0, "unit": "mm"},
      {"measurement": "zone of inhibition at 2.5 µM", "setting": "[5]", "result": 0, "unit": "mm"},
      {"measurement": "zone of inhibition at 2.5 µM", "setting": "[6]", "result": 0, "unit": "mm"},
      {"measurement": "zone of inhibition at 2.5 µM", "setting": "[7]", "result": 0, "unit": "mm"},
      {"measurement": "zone of inhibition at 2.5 µM", "setting": "[8]", "result": 0, "unit": "mm"}
    ]},
    {"smiles": "COc1ccc(C2CC(=NNC(N)=S)c3c(O)cc(O)cc3O2)cc1O", "note": "(centres unmarked) [HTSC, N-[2,3-dihydro-5,7-dihydroxy-2-(3-hydroxy-4-methoxyphenyl)chromen-4-ylidene]thiosemicarbazide]", "values": [
      {"measurement": "ABTS^•+ antioxidant activity", "setting": "[1]", "result": "86.61 ± 4.6", "unit": "%"},
      {"measurement": "Non-cytotoxic concentration (IC0)", "setting": "HaCaT cells; 48 h exposure", "result": "≤ 3.9", "unit": "µg/mL"},
      {"measurement": "IC50", "setting": "HaCaT cells; [10]", "result": 11.9, "unit": "µg/mL"},
      {"measurement": "MIC", "setting": "[2]", "result": 1.25, "unit": "µM"},
      {"measurement": "zone of inhibition at 2.5 µM", "setting": "[3]", "result": 0, "unit": "mm"},
      {"measurement": "zone of inhibition at 2.5 µM", "setting": "[4]", "result": 0, "unit": "mm"},
      {"measurement": "zone of inhibition at 2.5 µM", "setting": "[5]", "result": 0, "unit": "mm"},
      {"measurement": "zone of inhibition at 2.5 µM", "setting": "[6]", "result": 0, "unit": "mm"},
      {"measurement": "zone of inhibition at 2.5 µM", "setting": "[7]", "result": 0, "unit": "mm"},
      {"measurement": "zone of inhibition at 2.5 µM", "setting": "[8]", "result": 0, "unit": "mm"}
    ]}
  ]
}
